Laboratory results reported in ChEMBL document CHEMBL3232804, “Synthesis and evaluation of new diaryl ether and quinoline hybrids as potential antiplasmodial and antimicrobial agents” (Bioorg Med Chem Lett, 2014).
Converted amounts (≈) assume the structure as drawn.

Columns and labels:
Pseudomonas aeruginosa = experiment: Antimicrobial activity against Pseudomonas aeruginosa ATCC BAA-427 after 24 hrs by standard broth microdilution method; type: functional; details: ATCC BAA-427, 24 h
Plasmodium falciparum [1] = experiment: Antiplasmodial activity against chloroquine-resistant Plasmodium falciparum K1 infected after 72 hrs by Malaria SYBR Green I-staining based fluorescence assay; type: functional, organism-based; details: K1, 72 h
Escherichia coli = experiment: Antimicrobial activity against Escherichia coli ATCC 9637 after 24 hrs by standard broth microdilution method; type: functional; details: ATCC 9637, 24 h
Staphylococcus aureus = experiment: Antimicrobial activity against Staphylococcus aureus ATCC 25923 after 24 hrs by standard broth microdilution method; type: functional; details: ATCC 25923, 24 h
Plasmodium falciparum [2] = experiment: Antiplasmodial activity against chloroquine-sensitive Plasmodium falciparum 3D7 infected after 72 hrs by Malaria SYBR Green I-staining based fluorescence assay; type: functional, organism-based; details: 3D7, 72 h
Aspergillus fumigatus = experiment: Antifungal activity against Aspergillus fumigatus clinical isolate after 72 to 96 hrs by standard broth microdilution method; type: functional
[3] = tested on: Trichophyton mentagrophytes; experiment: Antifungal activity against Trichophyton mentagrophytes clinical isolate after 72 to 96 hrs by standard broth microdilution method; type: functional
Candida albicans = experiment: Antifungal activity against Candida albicans clinical isolate after 24 to 48 hrs by standard broth microdilution method; type: functional
Sporothrix schenckii = experiment: Antifungal activity against Sporothrix schenckii clinical isolate after 72 to 96 hrs by standard broth microdilution method; type: functional
Cryptococcus neoformans = experiment: Antifungal activity against Cryptococcus neoformans clinical isolate after 24 to 48 hrs by standard broth microdilution method; type: functional
Klebsiella pneumoniae = experiment: Antimicrobial activity against Klebsiella pneumoniae ATCC 27736 after 24 hrs by standard broth microdilution method; type: functional; details: ATCC 27736, 24 h
Candida parapsilosis = experiment: Antifungal activity against Candida parapsilosis ATCC […] after 72 to 96 hrs by standard broth microdilution method; type: functional; details: Lodderomyces parapsilosis
[4] = Selectivity index, ratio of IC50 for african green monkey Vero cells to IC50 for chloroquine-sensitive Plasmodium falciparum 3D7; type: toxicity, cell-based; details: read-out: Ratio IC50

| SMILES | MIC (Pseudomonas aeruginosa) | IC50 (Plasmodium falciparum [1]) | MIC (Escherichia coli) | MIC (Staphylococcus aureus) | IC50 (Plasmodium falciparum [2]) | MIC (Aspergillus fumigatus) | MIC [3] | MIC (Candida albicans) | MIC (Sporothrix schenckii) | MIC (Cryptococcus neoformans) | MIC (Klebsiella pneumoniae) | MIC (Candida parapsilosis) | selectivity ratio [4] |
| --- | --- | --- | --- | --- | --- | --- | --- | --- | --- | --- | --- | --- | --- |
| Clc1cccc(/N=C(\NCCCCNc2ccnc3cc(Cl)ccc23)Nc2ccc(Oc3cc(Cl)ccc3Cl)cc2)c1 | > 50 µg/mL | > 782 nM | 6.25 µg/mL (≈ 9.77 µM) | 6.25 µg/mL (≈ 9.77 µM) | 126 nM | 25 µg/mL (≈ 39.1 µM) | 6.25 µg/mL (≈ 9.77 µM) | 3.12 µg/mL (≈ 4.88 µM) | 3.12 µg/mL (≈ 4.88 µM) | 12.5 µg/mL (≈ 19.5 µM) | 50 µg/mL (≈ 78.2 µM) | 6.25 µg/mL (≈ 9.77 µM) | 26.3 |
| COc1ccc(Oc2ccccc2N/C(=N/c2cccc(Cl)c2)NCCCCNc2ccnc3cc(Cl)ccc23)cc1 | > 50 µg/mL | > 1000 nM | 12.5 µg/mL (≈ 20.8 µM) | 3.12 µg/mL (≈ 5.2 µM) | 37.6 nM | > 50 µg/mL | 12.5 µg/mL (≈ 20.8 µM) | 12.5 µg/mL (≈ 20.8 µM) | 12.5 µg/mL (≈ 20.8 µM) | 50 µg/mL (≈ 83.3 µM) | 50 µg/mL (≈ 83.3 µM) | 50 µg/mL (≈ 83.3 µM) | 176 |
| COC(=O)/C(C)=C/c1ccc(Oc2ccccc2N/C(=N/c2ccccc2)NCCCCNc2ccnc3cc(Cl)ccc23)cc1 | > 50 µg/mL | 141 nM | > 50 µg/mL | > 50 µg/mL | 287 nM | > 50 µg/mL | > 50 µg/mL | > 50 µg/mL | > 50 µg/mL | > 50 µg/mL | > 50 µg/mL | > 50 µg/mL | 78 |
| COC(=O)/C(C)=C/c1ccc(Oc2ccc(N/C(=N/c3ccccc3)NCCCNc3ccnc4cc(Cl)ccc34)cc2)cc1 | > 50 µg/mL | > 800 nM | 50 µg/mL (≈ 80.6 µM) | 25 µg/mL (≈ 40.3 µM) | 78.2 nM | 25 µg/mL (≈ 40.3 µM) | 12.5 µg/mL (≈ 20.2 µM) | 6.25 µg/mL (≈ 10.1 µM) | 6.25 µg/mL (≈ 10.1 µM) | 6.25 µg/mL (≈ 10.1 µM) | > 50 µg/mL | 25 µg/mL (≈ 40.3 µM) | 84.3 |
| Clc1ccc(/N=C(\NCCNc2ccnc3cc(Cl)ccc23)Nc2ccccc2Oc2cc(Cl)ccc2Cl)cc1 | > 50 µg/mL | > 800 nM | 12.5 µg/mL (≈ 20.4 µM) | 6.25 µg/mL (≈ 10.2 µM) | 58.1 nM | > 50 µg/mL | 50 µg/mL (≈ 81.8 µM) | 25 µg/mL (≈ 40.9 µM) | 25 µg/mL (≈ 40.9 µM) | > 50 µg/mL | > 50 µg/mL | > 50 µg/mL | 16.5 |
| Clc1cccc(/N=C(\NCCCCNc2ccnc3cc(Cl)ccc23)Nc2ccccc2Oc2cc(Cl)ccc2Cl)c1 | 50 µg/mL (≈ 78.2 µM) | 432 nM | 12.5 µg/mL (≈ 19.5 µM) | 1.56 µg/mL (≈ 2.44 µM) | 149 nM | 50 µg/mL (≈ 78.2 µM) | 25 µg/mL (≈ 39.1 µM) | 25 µg/mL (≈ 39.1 µM) | 25 µg/mL (≈ 39.1 µM) | 50 µg/mL (≈ 78.2 µM) | 12.5 µg/mL (≈ 19.5 µM) | 25 µg/mL (≈ 39.1 µM) | 7.7 |
| Clc1cccc(/N=C(\NCCCNc2ccnc3cc(Cl)ccc23)Nc2ccccc2Oc2cc(Cl)ccc2Cl)c1 | > 50 µg/mL | 77.7 nM | 6.25 µg/mL (≈ 9.99 µM) | 1.56 µg/mL (≈ 2.49 µM) | 87.7 nM | > 50 µg/mL | 50 µg/mL (≈ 80 µM) | 25 µg/mL (≈ 40 µM) | 50 µg/mL (≈ 80 µM) | 50 µg/mL (≈ 80 µM) | > 50 µg/mL | 50 µg/mL (≈ 80 µM) | 18.7 |
| COC(=O)/C(C)=C/c1ccc(Oc2ccccc2N/C(=N/c2ccc(Cl)cc2)NCCCNc2ccnc3cc(Cl)ccc23)cc1 | > 50 µg/mL | 263 nM | 12.5 µg/mL (≈ 19.1 µM) | 1.56 µg/mL (≈ 2.38 µM) | 74.5 nM | > 50 µg/mL | 25 µg/mL (≈ 38.2 µM) | 50 µg/mL (≈ 76.4 µM) | 25 µg/mL (≈ 38.2 µM) | 50 µg/mL (≈ 76.4 µM) | > 50 µg/mL | > 50 µg/mL | 32.7 |
| COC(=O)/C(C)=C/c1ccc(Oc2ccc(N/C(=N/c3ccccc3)NCCNc3ccnc4cc(Cl)ccc34)cc2)cc1 | > 50 µg/mL | 65.9 nM | 12.5 µg/mL (≈ 20.6 µM) | 25 µg/mL (≈ 41.2 µM) | 70.3 nM | 25 µg/mL (≈ 41.2 µM) | 6.25 µg/mL (≈ 10.3 µM) | 1.52 µg/mL (≈ 2.51 µM) | 12.5 µg/mL (≈ 20.6 µM) | 12.5 µg/mL (≈ 20.6 µM) | > 50 µg/mL | 12.5 µg/mL (≈ 20.6 µM) | 158 |
